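Cells were grown in 96-well plates and exposed to each compound for 48 hours at five concentrations; endpoints were interpolated linearly between bracketing concentrations, or set to the highest concentration if not reached. At the TGI there is no net growth.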
Columns and labels:
Experiment in all cases: NCI anticancer screen, dose series, 48 h
[1] = system: NCI-H23 lung
[2] = system: T-47D breast
[3] = system: OVCAR-8 ovarian
[4] = system: NCI-H460 lung
[5] = system: ACHN renal
[6] = system: A549 NSCLC
[7] = system: 786-0 renal
[8] = system: HT29 colon
[9] = system: SN12C renal
[10] = system: SK-MEL-2 melanoma
[11] = system: M14 melanoma
[12] = system: HL-60(TB) leukemia
[13] = system: SW-620 colon
[14] = system: NCI-H522 lung
[15] = system: HCT-15 colon
[16] = system: SK-MEL-28 melanoma
[17] = system: SK-OV-3 ovarian

Structure (SMILES) | TGI [1] | TGI [2] | TGI [3] | TGI [4] | TGI [5] | TGI [6] | TGI [7] | TGI [8] | TGI [9] | TGI [10] | TGI [11] | TGI [12] | TGI [13] | TGI [14] | TGI [15] | TGI [16] | TGI [17]
O=C1CSC(c2c(O)ccc3ccccc23)N1n1c(=S)[nH]nc(/C=C/c2c(O)ccc3ccccc23)c1=O (configuration not stated) | 23 µM | 15.1 µM | 21.4 µM | 11.5 µM | 11.2 µM | 21.8 µM | 14.5 µM | 36.6 µM | 14.2 µM | 15.1 µM | 3.32 µM | 0.874 µM | 52.1 µM | 21 µM | 23.2 µM | – | –
CN1CCN(CCCCNc2cc3c4ccccc4c(NCCCCN4CCN(C)CC4)cc3c3ccccc23)CC1 | – | 84.2 µM | 10.2 µM | 3.2 µM | 17.3 µM | 3.21 µM | 3.48 µM | 4.19 µM | 9.27 µM | 16.5 µM | 2.16 µM | 14.9 µM | – | 6.51 µM | 2.88 µM | 29 µM | 29.4 µM
N#CCCCCC12C3C(=O)N(c4ccccc4)C(=O)C3ON1O[C@@H]1C(=O)N(c3ccccc3)C(=O)[C@@H]12 (some centres not stated) | > 100 µM | > 100 µM | > 100 µM | > 100 µM | > 100 µM | > 100 µM | > 100 µM | > 100 µM | > 100 µM | – | > 100 µM | > 100 µM | > 100 µM | > 100 µM | > 100 µM | > 100 µM | > 100 µM
CC(C(O)c1ccccc1)[N+](=O)[O-] (configuration not stated) | > 100 µM | 59.5 µM | 35 µM | > 100 µM | 33.7 µM | 40 µM | > 100 µM | 71.8 µM | 35.6 µM | 39 µM | 72 µM | 44.6 µM | > 100 µM | 22.9 µM | 43.4 µM | 41.5 µM | –
O=C(O)c1ccc(/C=N\N(CCO)C2=NCCN2)cc1 | > 100 µM | > 100 µM | > 100 µM | > 100 µM | > 100 µM | > 100 µM | > 100 µM | > 100 µM | > 100 µM | > 100 µM | > 100 µM | > 100 µM | > 100 µM | – | > 100 µM | > 100 µM | > 100 µM
COc1ccc(CCN2CCOCC2)cc1 | > 100 µM | > 100 µM | – | > 100 µM | > 100 µM | > 100 µM | > 100 µM | > 100 µM | > 100 µM | > 100 µM | > 100 µM | > 100 µM | > 100 µM | > 100 µM | > 100 µM | > 100 µM | > 100 µM
O=C1O[C@H](COC(=O)c2ccccc2)[C@@H](OC(=O)c2ccccc2)C=C1OC(=O)c1ccccc1 | 42.6 µM | 54.6 µM | 45.4 µM | 36.6 µM | 35.3 µM | – | 33.7 µM | – | 36.9 µM | 50.8 µM | 31.9 µM | 27.1 µM | 35.9 µM | 37.8 µM | 39.6 µM | – | > 100 µM
CC(Nc1cc(=O)n(C)c(=O)[nH]1)c1ccccc1 (configuration not stated) | > 100 µM | > 100 µM | > 100 µM | > 100 µM | > 100 µM | > 100 µM | > 100 µM | > 100 µM | > 100 µM | > 100 µM | > 100 µM | > 100 µM | > 100 µM | > 100 µM | > 100 µM | > 100 µM | –
CCC(C)N1CN(c2ccccc2)C2(CCN(CCCC(=O)c3ccc(F)cc3)CC2)C1=O (configuration not stated) | 14.1 µM | 15.9 µM | – | – | 9.73 µM | 20.4 µM | > 100 µM | 2.35 µM | 14.3 µM | 28.7 µM | 27.4 µM | 46 µM | 16 µM | 20.6 µM | 17.9 µM | 32.1 µM | 21.5 µM
S=C1NC2=C(COC/C2=C\c2ccccc2Cl)C(c2ccccc2Cl)N1 (configuration not stated) | > 100 µM | > 100 µM | > 100 µM | > 100 µM | > 100 µM | – | > 100 µM | – | > 100 µM | 67.1 µM | > 100 µM | 34.4 µM | > 100 µM | > 100 µM | > 100 µM | – | > 100 µM
COC(=O)C(Cc1ccccc1)NC(=O)C(CCCN=C(N)N)NC(=O)OCc1ccccc1 (configuration not stated) | > 100 µM | > 100 µM | > 100 µM | > 100 µM | > 100 µM | > 100 µM | > 100 µM | > 100 µM | > 100 µM | – | > 100 µM | > 100 µM | > 100 µM | > 100 µM | > 100 µM | > 100 µM | > 100 µM
CCOc1ccc(C(c2c(O)c3ccccc3oc2=O)c2c(O)c3ccccc3oc2=O)cc1 | > 100 µM | > 100 µM | > 100 µM | – | > 100 µM | > 100 µM | > 100 µM | > 100 µM | > 100 µM | 59.1 µM | > 100 µM | 50.2 µM | > 100 µM | > 100 µM | > 100 µM | > 100 µM | > 100 µM
CN(C)Cc1cc(C(=O)/C=C/c2c(F)cccc2Cl)cc(CN(C)C)c1O | 38.3 µM | 33.4 µM | 41.2 µM | 11.8 µM | 15.4 µM | 32.5 µM | 19.5 µM | 23.7 µM | 17.2 µM | 35.5 µM | 30 µM | 8.49 µM | 31.3 µM | – | 19.1 µM | 31.9 µM | 28.3 µM
O=C(OCc1c(-c2ccccc2)nn(-c2ccccc2)c1COC(=O)Oc1ccccc1)Oc1ccccc1 | > 100 µM | > 100 µM | > 100 µM | > 100 µM | > 100 µM | > 100 µM | > 100 µM | > 100 µM | > 100 µM | – | > 100 µM | > 100 µM | > 100 µM | > 100 µM | > 100 µM | > 100 µM | > 100 µM

Source: PubChem BioAssay (NCI)
